Data: US20220348592A1, “FUSED HETEROCYCLIC DERIVATIVES” (Janssen Sciences Ireland Unlimited Company, priority 2019, published 2022)

Tests used:
HBV = assay: Anti-HBV activity: intracellular HBV DNA by real-time PCR in HepG2.117 cell line; type: cell-based, Hepatitis B virus; conditions: Hepatitis B virus, 72 h; HepG2.117 cells, 3 days of treatment, intracellular HBV DNA by real-time PCR, mean value; read-out: HBV-AVE-HepG2.117 EC50 (μM, mean value)
Procedure, shortened: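 HepG2.117 cells, a Tet-off inducible HBV-producing line, induced to replicate HBV and then treated with serially diluted compound. After 3 days, intracellular HBV DNA quantified by real-time PCR with HBV-specific primers and probe.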

[1] = Cytotoxicity in HepG2.117 cells, ATPlite Luminescence Assay; type: cell-based, human; conditions: human, incubated for 3 days, mean value, read-out: TOX-HepG2.117 CC50 (μM, mean value)
Description: Cytotoxicity of the compounds was tested using HepG2 or HepG2.117 cells, incubated for 3 days in the presence of compounds. The viability of the cells was assessed using the PERKIN ELMER ATPlite Luminescence Assay System.”

Structure (SMILES)	EC50 (HBV)	CC50 at 3 days [1]
C[C@@H]1Cc2nn3c(c2CN1C(=O)c1ccc(Cl)c(Cl)c1)C(=O)N(Cc1nnc(C2CC2)o1)CC3 [Example C201]	0.229 µM	> 50 µM
C[C@@H]1Cc2nn3c(c2CN1C(=O)c1ccc(Cl)c(Cl)c1)C(=O)N(Cc1cn(C)cn1)CC3 [Example C202]	0.071 µM	> 50 µM
C[C@@H]1Cc2nn3c(c2CN1C(=O)c1ccc(Cl)c(Cl)c1)C(=O)N(Cc1ccc(C#N)cc1OC(F)F)CC3 [Example C203]	0.09 µM	> 50 µM
Cc1cc(CN2CCn3nc4c(c3C2=O)CN(C(=O)c2ccc(Cl)c(Cl)c2)[C@H](C)C4)ccc1C#N [Example C204]	0.028 µM	19.2 µM
Cc1cc(C#N)ccc1CN1CCn2nc3c(c2C1=O)CN(C(=O)c1ccc(Cl)c(Cl)c1)[C@H](C)C3 [Example C207]	0.053 µM	25.6 µM
C[C@@H]1Cc2nn3c(c2CN1C(=O)c1ccc(Cl)c(Cl)c1)C(=O)N(Cc1ccc(F)cn1)CC3 [Example C208]	0.13 µM	> 50 µM
Cc1ncc(CN2CCn3nc4c(c3C2=O)CN(C(=O)c2ccc(Cl)c(Cl)c2)[C@H](C)C4)o1 [Example C209]	> 2.5 µM	> 50 µM
C[C@@H]1Cc2nn3c(c2CN1C(=O)c1ccc(Cl)c(Cl)c1)C(=O)N(Cc1ccnc(F)c1)CC3 [Example C210]	0.062 µM	> 50 µM
C[C@@H]1Cc2nn3c(c2CN1C(=O)c1ccc(Cl)c(Cl)c1)C(=O)N(Cc1ccnc(C#N)c1)CC3 [Example C211]	0.285 µM	> 50 µM
C[C@@H]1Cc2nn3c(c2CN1C(=O)c1ccc(Cl)c(Cl)c1)C(=O)N(Cc1cc(F)ccc1OC(F)F)CC3 [Example C212]	0.05 µM	> 50 µM
C[C@@H]1Cc2nn3c(c2CN1C(=O)c1ccc(Cl)c(Cl)c1)C(=O)N(Cc1cccc(C(F)(F)F)n1)CC3 [Example C213]	0.382 µM	37.5 µM
Cc1ncoc1CN1CCn2nc3c(c2C1=O)CN(C(=O)c1ccc(Cl)c(Cl)c1)[C@H](C)C3 [Example C214]	0.074 µM	> 50 µM
COc1ccc(C#N)cc1CN1CCn2nc3c(c2C1=O)CN(C(=O)c1ccc(Cl)c(Cl)c1)[C@H](C)C3 [Example C215]	0.106 µM	> 50 µM
C[C@@H]1Cc2nn3c(c2CN1C(=O)c1ccc(Cl)c(Cl)c1)C(=O)N(Cc1ccc(F)c(C#N)c1)CC3 [Example C216]	0.09 µM	> 50 µM
CC(c1nc(C(C)(C)C)no1)N1CCn2nc3c(c2C1=O)CN(C(=O)c1ccc(Cl)c(Cl)c1)[C@H](C)C3 (stereo partly shown) [Example C217]	0.183 µM	39.5 µM
CC(c1nccs1)N1CCn2nc3c(c2C1=O)CN(C(=O)c1ccc(Cl)c(Cl)c1)[C@H](C)C3 (stereo partly shown) [Example C218]	0.039 µM	> 50 µM
Cc1cnc(C(C)N2CCn3nc4c(c3C2=O)CN(C(=O)c2ccc(Cl)c(Cl)c2)[C@H](C)C4)cn1 (stereo partly shown) [Example C219]	0.068 µM	> 50 µM
CCc1nnc(C(C)N2CCn3nc4c(c3C2=O)CN(C(=O)c2ccc(Cl)c(Cl)c2)[C@H](C)C4)o1 (stereo partly shown) [Example C220]	0.077 µM	> 50 µM
Cc1cnc(C(C)N2CCn3nc4c(c3C2=O)CN(C(=O)c2ccc(Cl)c(Cl)c2)[C@H](C)C4)o1 (stereo partly shown) [Example C221]	0.022 µM	> 50 µM
CCc1noc(C(C)N2CCn3nc4c(c3C2=O)CN(C(=O)c2ccc(Cl)c(Cl)c2)[C@H](C)C4)n1 (stereo partly shown) [Example C222]	0.124 µM	> 50 µM
Cc1noc(C(C)N2CCn3nc4c(c3C2=O)CN(C(=O)c2ccc(Cl)c(Cl)c2)[C@H](C)C4)n1 (stereo partly shown) [Example C223]	0.219 µM	> 50 µM
Cc1nnc(C(C)N2CCn3nc4c(c3C2=O)CN(C(=O)c2ccc(Cl)c(Cl)c2)[C@H](C)C4)o1 (stereo partly shown) [Example C224]	0.326 µM	> 50 µM
Cc1nc(C(C)N2CCn3nc4c(c3C2=O)CN(C(=O)c2ccc(Cl)c(Cl)c2)[C@H](C)C4)no1 (stereo partly shown) [Example C225]	0.263 µM	> 50 µM
COc1ccccc1C(C)N1CCn2nc3c(c2C1=O)CN(C(=O)c1ccc(Cl)c(Cl)c1)[C@H](C)C3 (stereo partly shown) [Example C227]	0.129 µM	37.3 µM

Structure (SMILES)	EC50 (HBV)	CC50 at 3 days [1]
C[C@@H]1Cc2nn3c(c2CN1C(=O)c1ccc(Cl)c(Cl)c1)C(=O)N(Cc1cc(F)ccc1F)CC3 [Example C228]	0.062 µM	37.5 µM
Cc1ocnc1CN1CCn2nc3c(c2C1=O)CN(C(=O)c1ccc(Cl)c(Cl)c1)[C@H](C)C3 [Example C229]	0.438 µM	> 25 µM
C[C@@H]1Cc2nn3c(c2CN1C(=O)c1ccc(Cl)c(Cl)c1)C(=O)N(Cc1cc(F)cc(C#N)c1)CC3 [Example C230]	0.045 µM	> 12.5 µM
C[C@@H]1Cc2nn3c(c2CN1C(=O)c1ccc(Cl)c(Cl)c1)C(=O)N(Cc1cccc(C#N)c1F)CC3 [Example C231]	0.09 µM	> 50 µM
Cc1ccc(CN2CCn3nc4c(c3C2=O)CN(C(=O)c2ccc(Cl)c(Cl)c2)[C@H](C)C4)c(C)n1 [Example C232]	0.066 µM	24.4 µM
C[C@@H]1Cc2nn3c(c2CN1C(=O)c1ccc(Cl)c(Cl)c1)C(=O)N(Cc1cccnc1C(F)(F)F)CC3 [Example C233]	0.423 µM	29.8 µM
Cc1nc(C)c(CN2CCn3nc4c(c3C2=O)CN(C(=O)c2ccc(Cl)c(Cl)c2)[C@H](C)C4)s1 [Example C234]	0.036 µM	> 50 µM
C[C@@H]1Cc2nn3c(c2CN1C(=O)c1ccc(Cl)c(Cl)c1)C(=O)N(Cc1nc(C2CC2)nn1C)CC3 [Example C235]	1.93 µM	> 50 µM
Cc1conc1CN1CCn2nc3c(c2C1=O)CN(C(=O)c1ccc(Cl)c(Cl)c1)[C@H](C)C3 [Example C236]	0.325 µM	> 51 µM
C[C@@H]1Cc2nn3c(c2CN1C(=O)c1ccc(Cl)c(Cl)c1)C(=O)N(Cc1ccc(C(F)(F)F)cn1)CC3 [Example C237]	0.107 µM	18.8 µM
C[C@@H]1Cc2nn3c(c2CN1C(=O)c1ccc(Cl)c(Cl)c1)C(=O)N(Cc1ccc(C#N)c(F)c1)CC3 [Example C238]	0.029 µM	39.9 µM
C[C@@H]1Cc2nn3c(c2CN1C(=O)c1ccc(Cl)c(Cl)c1)C(=O)N(Cc1cn(C2CC2)nn1)CC3 [Example C239]	0.154 µM	> 50 µM
C[C@@H]1Cc2nn3c(c2CN1C(=O)c1ccc(Cl)c(Cl)c1)C(=O)N(Cc1cnc(Cl)c(F)c1)CC3 [Example C240]	0.017 µM	35.2 µM
Cc1nocc1CN1CCn2nc3c(c2C1=O)CN(C(=O)c1ccc(Cl)c(Cl)c1)[C@H](C)C3 [Example C241]	0.19 µM	> 50 µM
C[C@@H]1Cc2nn3c(c2CN1C(=O)c1ccc(Cl)c(Cl)c1)C(=O)N(Cc1nccn1C)CC3 [Example C242]	0.589 µM	> 50 µM
CCOc1cc(CN2CCn3nc4c(c3C2=O)CN(C(=O)c2ccc(Cl)c(Cl)c2)[C@H](C)C4)nc2nc(C(F)(F)F)nn12 [Example C243]	> 2.5 µM	> 50 µM
CC(c1ccccc1F)N1CCn2nc3c(c2C1=O)CN(C(=O)c1ccc(Cl)c(Cl)c1)[C@H](C)C3 (stereo partly shown) [Example C244]	0.048 µM	24.5 µM
Cc1nnc(C(C)N2CCn3nc4c(c3C2=O)CN(C(=O)c2ccc(Cl)c(Cl)c2)[C@H](C)C4)s1 (stereo partly shown) [Example C245]	0.072 µM	> 50 µM
CC(c1cnccn1)N1CCn2nc3c(c2C1=O)CN(C(=O)c1ccc(Cl)c(Cl)c1)[C@H](C)C3 (stereo partly shown) [Example C246]	0.171 µM	> 50 µM
CC(c1nnnn1C)N1CCn2nc3c(c2C1=O)CN(C(=O)c1ccc(Cl)c(Cl)c1)[C@H](C)C3 (stereo partly shown) [Example C247]	> 2.5 µM	> 50 µM
CC(c1c(F)cccc1F)N1CCn2nc3c(c2C1=O)CN(C(=O)c1ccc(Cl)c(Cl)c1)[C@H](C)C3 (stereo partly shown) [Example C248]	0.013 µM	25 µM
CC(c1nncn1C)N1CCn2nc3c(c2C1=O)CN(C(=O)c1ccc(Cl)c(Cl)c1)[C@H](C)C3 (stereo partly shown) [Example C249]	> 2.5 µM	> 50 µM
CC(c1ccncc1)N1CCn2nc3c(c2C1=O)CN(C(=O)c1ccc(Cl)c(Cl)c1)[C@H](C)C3 (stereo partly shown) [Example C250]	0.033 µM	> 12.5 µM
